Measured values reported in patent publication US20180072675A1, “ANTIMICROBIAL PYRIDINOHYDRAZIDE AND HYDRAZOMETHYLPYRIDINE-BASED AGENTS” (Board of Supervisors of Louisiana State University and …, priority 2015, published 2018).
≈ marks a conversion by molar mass, not a printed value. Entries after “also recorded” stand apart in the source; their conditions may differ.

Legend:
[1] = test system: C. albicans clinical isolate 1 (TW1); test: MIC80 fungal growth inhibition, clinical isolate TW1; type: cell-based, Candida albicans; conditions: Azole-susceptible, >80% growth inhibition, visual scoring; for MIC80: Candida albicans, read-out: MIC80 TW1
Protocol: (§1) The antifungal activity of the pyridinohydrazide and hydrazomethylpyridine derivatives described in the s were evaluated in vitro using Candida albicans (ATCC Accession No. 10231) and Candida glabrata (ATCC Accession No. 48435). In addition, the compounds were evaluated for activity against two previously-described clinical isolates of C. albicans known to have developed azole-resistance. These isolates were obtained over a two year period from a single AIDS patient and the development of the azole-resistance mechanisms have been extensively characterized (White T C. Antimicrob. Agents Chemother. (1997) 41: 1482-1487). MIC assays were performed on the clinical isolates 1 and 17 (annotated TW1 and TW17, respectively), where isolate 1 was used as an azole-susceptible control and isolate 17 was considered azole-resistant. All assays were done in accordance with NCCLS reference documents (Clinical Laboratory and Standards Institute. Reference method for Broth Dilution Antifungal Susceptibility Testing of Yeasts: Approved Standard. M27-A3 2010; 28). The results of these screenings are summarized in Tables 1-9 (Examples 20-27) as the minimum concentrations that inhibited more than 80% of fungal growth (MIC80) as compared to positive controls containing 1% DMSO. Assays were performed in HEPES-buffered RPMI-1640 media. All MIC screens used a visual scoring method as opposed to spectroscopic analysis, due to the altered absorbance spectra of many of the compounds.

[2] = test system: C. albicans clinical isolate 17 (TW17); test: MIC80 fungal growth inhibition, clinical isolate TW17; type: cell-based, Candida albicans; conditions: for MIC80: Candida albicans, read-out: MIC80 TW17; for MIC80 / MIC80 TW17: Azole-resistant, >80% growth inhibition, visual scoring
Protocol: as §1

[3] = test system: Candida albicans (ATCC Accession No. 10231); test: MIC80 fungal growth inhibition, C. albicans ATCC 10231; type: cell-based; conditions: Azole-susceptible, >80% growth inhibition, visual scoring; for MIC80: Candida albicans, ATCC10231, read-out: MIC80 C. albicans ATCC No. 10231
Protocol: as §1

[4] = test system: Candida glabrata (ATCC Accession No. 48435); test: MIC80 fungal growth inhibition, C. glabrata ATCC 48435; type: cell-based; conditions: Azole-resistant, >80% growth inhibition, visual scoring; for MIC80: Nakaseomyces glabratus, ATCC48435, read-out: MIC80 C. glabrata ATCC No. 48435
Protocol: as §1

protozoal proliferation = test: Protozoal proliferation; type: cell-based; conditions: FIG. 27
Candida strain TW17 = test: Time-kill assay; type: cell-based, Candida albicans; conditions: four times the MIC for TW17, 48 h
Protocol: FIG. 9 illustrates time-kill assays, for representative analogs that were active against the azole-resistant TW17, to determine the cidal or static nature of the analog tested. 100 μl of each sample was spread onto YM agar plates with a sterile bent spreading rod. Plates were incubated at 35° C. overnight and colonies were then counted on each plate.
One of the objectives of this study was to determine the cidal or static nature of the analogs that were active against such as TW17, the azole-resistant clinical isolate. Azoles affect Candida spp. by inhibiting ergosterol biosynthesis, and ultimately prevent their reproduction. This effect has led to the classification of azoles as fungistats. Determining the fungistatic or fungicidal nature of the synthesized compounds of the present disclosure allows a comparison to azoles, in addition to improving the understanding of how the structural motifs might lend toward an alternate mechanism of action. Therefore, time-kill assays were performed using the representative analogs that were active against the azole-resistant TW17 at concentrations at or below 8 μg/mL.
Solid drugs were dissolved in DMSO to a concentration of 10 mg/ml. This stock solution was then further diluted in water to the desired experimental concentration, determined to be four times that of the MIC for the Candida strain TW17 (as reported in the Tables).
Individual colonies of TW17 were suspended in 5 ml of sterile water and adjusted to achieve a McFarland reading between 0.08 and 0.12. The inoculum was then further diluted in sterile water at a ratio of 1:100. Three […] tissue culture tubes were prepared by combining 2.5 ml of above diluted inoculum, 21.7 ml of HEPES buffered RPMI-1640 media, and 800 μl of experimental drug dilution. A “Growth Control” tube was prepared by combining 2.5 ml of inoculum, 21.7 HEPES buffered RPMI-1640 media, and 800 μl of water-DMSO solution equal to the DMSO concentration of the experimental drug dilution. A “Sterile Control” tube was prepared by combining 24.2 ml of HEPES-buffered RPMI-1640 media and 800 μl of water-DMSO solution as in the “Growth Control”. All tubes were incubated for 48 hours at 35° C., 50 rpm. 500 μl samples were taken from the tubes at time points of predetermined intervals during this incubation.
Time points for the “Kill-Curve” and “Growth Control” tubes were taken at 0, 1, 2, 4, 6, 8, 24, and 48 h after the start of incubation. Time points for “Sterile Control” were taken at 0 and 48 hours. Each time point sample was serially diluted 1:10 in sterile 0.9% NaCl solution up to 5 times. 100 μl of each sample was spread onto YM agar plates with a sterile bent spreading rod. Plates were incubated at 35° C. overnight and colonies were then counted on each plate. Colonies on plates from diluted time points were used to estimate uncountable undiluted samples. The number of colonies in undiluted samples was estimated to be 10^n times greater than the diluted sample, where n was the number of dilutions made.

[5] = test system: Candida albicans ATCC Accession No. 10231; test: Checkerboard synergy assay with fluconazole; type: cell-based; conditions: for FIC Fluc: average FIC of fluconazole at varying concentrations of the test drug; for FIC Test: average FIC of the test drug at varying concentrations of fluconazole; for Activity (interaction with fluconazole): from FIC index; for FIC Index: sum of the two FICs, <1 synergistic, >=1 antagonistic
Protocol: Considering that two different modes of activity (cidal and static) were observed depending on the structural motifs present in our analogs, we performed a series of checkerboard assays to determine if representative active compounds were in fact acting in synergy with the azole, fluconazole. Each of these assays tested multiple concentrations of the selected analog in the presence of multiple concentrations of fluconazole. All checkerboard assays were prepared in 96-well plates. 200 μl of previously prepared drug solutions were added to each well in column 2. Using a multichannel pipette, 100 μl from each well in column 2 was serially diluted (1:2) horizontally across the plate, stopping at column 10. Contents of each well were mixed thoroughly. Column 11 was reserved for fluconazole MIC control and contained no other drug. 100 μl of media was added to each well, column 2-10. Each well was mixed thoroughly with a multichannel pipette. 100 μl was then removed and discarded from these wells. 100 μl of previously prepared fluconazole dilution was added to each well in row B. Using a multichannel pipette, 100 μl from each well was serially diluted (1:2) vertically down the plate, stopping at row F. Contents of each well were mixed thoroughly. Row G was reserved for tested drug MIC control and contained no fluconazole. Well G11 contained neither drug and served as a drug-free growth control. The final 100 μl from each well in row F was discarded.
The fungal samples were prepared from glycerol stocks of Candida albicans ATCC Accession No. 10231. The inoculum's concentration was adjusted to a McFarland standard between 0.08 and 0.12. Inoculum was then diluted at a ratio of 1:37.5 in buffered media. 100 μl of inoculum-media solution was added to each well. Following inoculation, the 96-well plates were wrapped in parafilm to prevent evaporation and incubated for overnight at 35° C. After 18 h, the wells showing growth were recorded.
Synergistic activity was determined based on the MIC read from these plates. The fractional inhibitory concentration (FIC) for a given well is the ratio of the minimum inhibitory concentration of one drug A in the presence another drug B to the minimum inhibitory concentration with only drug A. The FIC was calculated for the test drug in each of the wells along the growth/no-growth interface at varying concentrations of fluconazole, then these values were averaged to determine the average FIC for the test drug. The same process was used to calculate the average FIC for fluconazole at varying concentrations of the test drug. The sum of these two FICs gives the FIC index which can be used to determine the synergistic effect between the two drugs (Hsieh et al., Diagn. Microbiol. Infect. Dis. (1993) 16: 343-349). An FIC index value less than 1 indicated synergistic interactions between the two drugs while an FIC index value greater than or equal to 1 indicated antagonistic interactions.

Candida spp. = test: MIC studies, statements pooled over several isolates; type: cell-based, Candida albicans, Candida glabrata; conditions: for antifungal activity (in words): overall over the isolates tested
Protocol: as §1

Vero (kidney) cells = test: Mammalian cell toxicity, Promega CellTiter 96, kidney cells; type: cell-based; conditions: through 10× MIC, 24 h
Protocol: (§2) Cytotoxicity was determined using non-cancerous Vero cells (kidney-african green monkey) and liver cells (Hep-2G) in accordance with Promega CellTiter 96 Non-Radioactive Cell Proliferation Assay (cat # G4000). Compounds were diluted in media and all assays were done in triplicate. Average values are presented, with ±SD. Cells were incubated in the presence of the compounds for 24 h at 37° C. and 5% CO2. Tetrazolium dye solution was added to each well and allowed to incubate for 1-4 h. Solubilization/Stop solution was added and allowed to sit at room temperature for 1 h. Formazan product was scored spectrophotometrically with an automatic plate reader set at 570 nm. Positive control wells for cell death were briefly treated with 0.1% saponin, immediately prior to the addition of dye solution. Wells containing 1% DMSO and no drug were used as a negative control and the average absorbance at 570 nm were set to 100%. The percent of cells viable were calculated as a ratio between the average absorption at 570 nm of the drug containing wells/average absorption at 570 nm of the control (no drug). Ratios were multiplied by 100 to give the values as a percentage as expressed on the y-axis.
(§3) Cytotoxicity studies were performed in accordance with Promega CellTiter 96 Non-RadioactivCell Proliferation Assay (cat #G4000). All cytotoxicity studies used a negative control (wells of either kidney or liver cells containing 1% DMSO but lacking the analog), a positive control (wells of either kidney or liver cells treated with the known cytotoxic agent, saponin) and the serial dilutions of the novel analogs. All control (negative) wells were normalized to 100% viable cells to accurately show the percentage of either liver or kidney cells that remained alive and viable following either overnight incubation with the analogs or 5-minute treatment with 0.1% saponin.

Hep G2 (liver) cells = test: Mammalian cell toxicity, Promega CellTiter 96, liver cells; type: cell-based; conditions: through 10× MIC, 24 h
Protocol: as §2, §3

Compound	MIC80 [1] [mg/L]	MIC80 [2] [mg/L]	MIC80 [4] [mg/L]	effect on protozoal proliferation (protozoal proliferation)	MIC80 TW1 [1] [mg/L]	MIC80 C. albicans ATCC No. 10231 [3] [mg/L]	MIC80 C. glabrata ATCC No. 48435 [4] [mg/L]	MIC80 TW17 [2] [mg/L]	further results
O=C(N/N=C/c1cc(Cl)ccc1O)c1ccccn1 [AR4, (E)-N′-(5-Chloro-2-hydroxybenzylidene)picolinohydrazide]	4 (≈ 14.5 µM)	8 (≈ 29 µM)	1 (≈ 3.63 µM)	reduce protozoal proliferation	–	–	–	–	MIC80 [3]: 1 mg/L (≈ 3.63 µM)
O=C(N/N=C/c1cc(Br)ccc1O)c1ccccn1 [AR5, (E)-N′-(5-bromo-2-hydroxybenzylidene)picolinohydrazide]	2 (≈ 6.25 µM)	4 (≈ 12.5 µM)	4 (≈ 12.5 µM)	reduce protozoal proliferation	–	–	–	–	MIC80 [3]: 1 mg/L (≈ 3.12 µM); Cidal vs Static (Candida strain TW17): fungicidal; also recorded: Cidal; FIC Fluc [5]: 1.00; FIC Test [5]: 0.90; Activity (interaction with fluconazole) [5]: Antagonistic; FIC Index [5]: 1.90
Cc1ccc(O)c(/C=N/NC(=O)c2cccnc2)c1 [AR8]	–	–	–	–	16 (≈ 62.7 µM)	4 (≈ 15.7 µM)	8 (≈ 31.3 µM)	–	activity against azole-resistant isolates (in words) (Candida spp.; azole-resistant isolates): less active
O=C(N/N=C/c1ccccc1O)c1cccnc1O [AR19]	4 (≈ 15.5 µM)	4 (≈ 15.5 µM)	1 (≈ 3.89 µM)	–	–	–	–	–	cell toxicity (Vero (kidney) cells): minimal toxicity; cell toxicity (Hep G2 (liver) cells): minimal toxicity; growth inhibition (in words) (Candida spp.; across all Candida albicans isolates): growth inhibition was observed at very low concentrations
O=C(N/N=C/c1cc([N+](=O)[O-])ccc1O)c1ccc[n+]([O-])c1 [AR28]	–	–	–	–	4 (≈ 13.2 µM)	8 (≈ 26.5 µM)	4 (≈ 13.2 µM)	2 (≈ 6.62 µM)	activity against azole-resistant TW17 [2]: 2 µM; Cidal vs Static (Candida strain TW17): Static; FIC Fluc [5]: 1.00; FIC Test [5]: 1.00; Activity (interaction with fluconazole) [5]: Antagonistic; FIC Index [5]: 2.00
C(=NNc1ccccc1)c1ccccn1 [AR29]	–	–	–	–	16 (≈ 81.1 µM)	16 (≈ 81.1 µM)	31 (≈ 157 µM)	16 (≈ 81.1 µM)	antifungal activity (in words) (Candida spp.): moderate activity
O=C(NN=Cc1ccccn1)c1ccccn1 [AR34]	–	–	–	–	16 (≈ 70.7 µM)	31 (≈ 137 µM)	16 (≈ 70.7 µM)	16 (≈ 70.7 µM)	antifungal activity (in words) (Candida spp.): moderate activity
O=C(N/N=C/c1cc([N+](=O)[O-])ccc1O)c1ccncc1 [SA113]	–	–	–	reduce protozoal proliferation	–	–	–	–	–
